# Columns and labels:
# [1] = biological target: T1, human recombinant histamine H2 receptor (Homo sapiens, UniProt P25021); assay: Histamine H2 radioligand binding assay; conditions: [125I]Aminopotentidine specific binding; for inhibition at 1 µM: read-out: Percentage Inhibition, Histamine Binding (1 μM) H2
# T1 construct: expressed in transfected cells; host or cells: Chinese hamster ovary (CHO) K1 cells
# Procedure: To evaluate in radioligand binding assays the activity of compounds of the invention, human recombinant histamine H2 receptor expressed in Chinese hamster ovary (CHO) K1 cells [Ruat, M., Proc. Natl. Acad. Sci. USA. (1990), 87(5):1658] in a 50 mM Phosphate buffer, pH 7.4 was used. Compounds of the invention were incubated with 0.1 nM [^125I]Aminopotentidine for 120 min. at 25° C. Non-specific binding was estimated in the presence of 3 μM Tiotidine. Receptor proteins were filtered and washed, the filters were then counted to determine [^125I]Aminopotentidine specifically bound. Compounds were screened at 1 μM or lower, using 1% DMSO as vehicle. Biochemical assay results are presented as the percent inhibition of specific binding in Table 2.
# [2] = biological target: T2, human recombinant serotonin (5-Hydroxytryptamine) 5-HT2A receptor (Homo sapiens, UniProt P28223); assay: Serotonin 5-HT2A radioligand binding assay; conditions: [3H]Ketanserin specific binding; for inhibition at 1 µM: read-out: Percent Inhibition of ligand binding, Serotonin (1 μM ligand concentration) 5-HT2A
# T2 construct: expressed in transfected cells; host or cells: Chinese hamster ovary (CHO-K1) cells
# Procedure: To evaluate in radioligand binding assays the activity of compounds of the invention, human recombinant serotonin (5-Hydroxytryptamine) 5-HT2A receptor expressed in Chinese hamster ovary (CHO-K1) cells [Bonhaus, D. W. et al., Br. J. Pharmacol. (1995), 115:622; Saucier, C. et al., J. Neurochem. (1997), 68:1998] in a 50 mM Tris-HCl buffer, pH 7.4, was used. Compounds of the invention were incubated with 0.5 nM [^3H]Ketanserin for 60 min. at 25° C. Non-specific binding was estimated in the presence of 1 μM Mianserin. Receptor proteins were filtered and washed, the filters were then counted to determine [^3H]Ketanserin specifically bound. Compounds were screened at 1 μM or lower, using 1% DMSO as vehicle. Biochemical assay results are presented as the percent inhibition of specific binding in Table 4.
# [3] = biological target: human recombinant serotonin (5-Hydroxytryptamine) 5-HT7 receptor (Homo sapiens, UniProt P34969); assay: Serotonin 5-HT7 radioligand binding assay; conditions: [3H]LSD specific binding; for inhibition at 1 µM: read-out: Percent Inhibition of ligand binding, Serotonin (1 μM ligand concentration) 5-HT7
# Procedure: To evaluate in radioligand binding assays the activity of compounds of the invention, human recombinant serotonin (5-Hydroxytryptamine) 5-HT7 receptor expressed in Chinese hamster ovary (CHO) cells [Roth, B. L. et al., J. Pharmacol. Exp. Ther. (1994), 268:1403; Shen, Y. et al., J. Biol. Chem. (1993), 268:18200] in a modified Tris-HCl buffer (50 mM Tris-HCl, pH 7.4, 10 mM MgCl2, 0.5 mM EDTA) was used. Compounds of invention were incubated with 5.5 nM [^3H] Lysergic acid diethylamide (LSD) for 2 h at 25° C. Non-specific binding was estimated in the presence of 10 μM Serotonin (5-HT). Receptor proteins were filtered and washed, the filters were then counted to determine [^3H]LSD specifically bound. Compounds were screened at 1 μM or lower, using 1% DMSO as vehicle. Biochemical assay results are presented as the percent inhibition of specific binding in Table 4.
# T1 sequence (P25021 whole entry): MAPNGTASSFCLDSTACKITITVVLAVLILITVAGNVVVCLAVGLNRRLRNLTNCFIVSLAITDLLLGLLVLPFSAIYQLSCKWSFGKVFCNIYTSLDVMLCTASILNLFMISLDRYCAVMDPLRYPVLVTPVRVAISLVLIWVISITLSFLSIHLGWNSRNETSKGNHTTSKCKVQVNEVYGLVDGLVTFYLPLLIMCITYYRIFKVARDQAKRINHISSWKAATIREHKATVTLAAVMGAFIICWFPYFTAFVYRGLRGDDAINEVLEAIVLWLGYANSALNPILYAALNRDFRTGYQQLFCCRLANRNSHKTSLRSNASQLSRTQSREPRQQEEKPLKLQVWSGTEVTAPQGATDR
# Sequence of human recombinant serotonin (5-Hydroxytryptamine) 5-HT7 receptor (P34969 whole entry): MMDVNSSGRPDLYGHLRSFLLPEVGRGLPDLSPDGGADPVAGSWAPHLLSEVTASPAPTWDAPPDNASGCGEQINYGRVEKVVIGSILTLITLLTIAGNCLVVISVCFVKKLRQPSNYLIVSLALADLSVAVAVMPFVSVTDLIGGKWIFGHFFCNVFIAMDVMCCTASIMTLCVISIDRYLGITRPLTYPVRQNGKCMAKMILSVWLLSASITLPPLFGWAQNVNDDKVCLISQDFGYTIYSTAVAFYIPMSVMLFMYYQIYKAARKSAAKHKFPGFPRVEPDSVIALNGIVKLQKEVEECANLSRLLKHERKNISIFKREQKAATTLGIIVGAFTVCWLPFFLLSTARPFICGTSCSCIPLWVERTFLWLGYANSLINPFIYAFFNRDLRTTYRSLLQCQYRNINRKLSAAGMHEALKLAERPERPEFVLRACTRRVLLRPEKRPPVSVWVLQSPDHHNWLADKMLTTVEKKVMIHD
# T2 sequence (P28223 whole entry): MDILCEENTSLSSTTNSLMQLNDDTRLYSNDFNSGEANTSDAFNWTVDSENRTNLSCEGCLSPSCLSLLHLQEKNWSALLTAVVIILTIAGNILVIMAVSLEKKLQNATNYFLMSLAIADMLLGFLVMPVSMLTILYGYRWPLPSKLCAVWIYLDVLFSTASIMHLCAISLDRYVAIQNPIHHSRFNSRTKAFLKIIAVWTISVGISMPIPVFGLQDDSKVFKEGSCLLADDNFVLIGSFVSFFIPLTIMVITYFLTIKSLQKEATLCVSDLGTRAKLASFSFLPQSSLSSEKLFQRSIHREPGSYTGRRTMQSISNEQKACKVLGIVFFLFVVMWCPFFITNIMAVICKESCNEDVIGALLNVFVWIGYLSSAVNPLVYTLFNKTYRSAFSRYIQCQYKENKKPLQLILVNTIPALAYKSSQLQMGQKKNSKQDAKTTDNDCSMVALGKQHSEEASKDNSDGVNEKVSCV
Structure (SMILES),inhibition at 1 µM [1],inhibition at 1 µM [2],"Percentage Inhibition, Histamine Binding (1 μM) H2 ([1]; 1 µM)","Percent Inhibition of ligand binding, Serotonin (1 μM ligand concentration) 5-HT2A [2]","Percent Inhibition of ligand binding, Serotonin (1 μM ligand concentration) 5-HT7 [3]",inhibition at 1 µM [3]
COc1ccc(C(O)Cn2c3c(c4cc(C)ccc42)C2CCN(C3)C2)cc1F (stereo not drawn) [Compound 6],-5%,45%,–,–,–,–
Cc1ccc2c(c1)c1c(n2CC(=O)N2CCCCC2)CN2CCC1C2 (stereo not drawn) [Compound 7],-4%,-3%,–,–,–,–
Cc1ccc2c(c1)c1c(n2CCc2nc(-c3ccccc3)cs2)CN2CCC1C2 (stereo not drawn) [Compound 19],-9%,0%,–,–,–,–
Cc1ccc2c(c1)c1c(n2CCc2ccccn2)CN2CCC1C2 (stereo not drawn) [Compound 11],-2%,10%,–,–,–,–
Cc1ccc2c(c1)c1c(n2CC(C)(O)c2ccc(Cl)c(Cl)c2)CN2CCC1C2 (stereo not drawn) [Compound 13],8%,82%,–,–,–,–
C/C(=C\n1c2c(c3cc(C)ccc31)C1CCN(C2)C1)c1ccc(Cl)cc1Cl (stereo not drawn) [Compound 34],–,–,40%,94%,86%,–
Cc1ccc2c(c1)c1c(n2CC(C)(O)c2ccc(Cl)cc2Cl)CN2CCC1C2 (stereo not drawn) [Compound 14],24%,61%,–,–,–,–
C/C(=C/n1c2c(c3cc(C)ccc31)C1CCN(C2)C1)c1ccccc1F (stereo not drawn) [Compound 37],22%,96%,–,–,–,93%
Cc1ccc2c(c1)c1c(n2CC(C)(O)c2ccc(Cl)cc2)CN2CCC1C2 (stereo not drawn) [Compound 16],10%,92%,–,–,–,–
Cc1ccc2c(c1)c1c(n2C#Cc2ccc(Cl)cc2)CN2CCC1C2 (stereo not drawn) [Compound 35],19%,87%,–,–,–,35%
Cc1ccc2c(c1)c1c(n2CCc2cncc(F)c2)CN2CCC1C2 (stereo not drawn) [Compound 9],6%,-6%,–,–,–,–
Cc1ccc2c(c1)c1c(n2CC(C)(O)c2ccc(F)c(F)c2)CN2CCC1C2 (stereo not drawn) [Compound 15],13%,82%,–,–,–,–
C/C(=C\n1c2c(c3cc(C)ccc31)C1CCN(C2)C1)c1ccc(F)cc1 (stereo not drawn) [Compound 22],15%,97%,–,–,–,–
Cc1ccc2c(c1)c1c(n2CC(O)c2ccccc2)CN2CCC1C2 (stereo not drawn) [Compound 4],5%,49%,–,–,–,–
Cc1ccc2c(c1)c1c(n2CC(=O)NC2CCCCC2)CN2CCC1C2 (stereo not drawn) [Compound 23],-3%,-4%,–,–,–,–
Cc1ccc(/C=C/n2c3c(c4cc(C)ccc42)C2CCN(C3)C2)cc1 (stereo not drawn) [Compound 10],6%,20%,–,–,–,–
Cc1ccc2c(c1)c1c(n2C(=O)Cc2ccc(F)cc2)CN2CCC1C2 (stereo not drawn) [Compound 43],7%,48%,–,–,–,41%
Cc1ccc2c(c1)c1c(n2CC(=O)c2ccccc2)CN2CCC1C2 (stereo not drawn) [Compound 21],-6%,16%,–,–,–,–
Cc1ccc2c(c1)c1c(n2CC(=O)N2CCOCC2)CN2CCC1C2 (stereo not drawn) [Compound 26],-1%,5%,–,–,–,–
Cc1ccc2c(c1)c1c(n2CC(C)(O)c2ccc(F)cc2)CN2CCC1C2 (stereo not drawn) [Compound 2],8%,76%,–,–,–,–

Structure (SMILES),inhibition at 1 µM [1],inhibition at 1 µM [2],"Percentage Inhibition, Histamine Binding (1 μM) H2 ([1]; 1 µM)","Percent Inhibition of ligand binding, Serotonin (1 μM ligand concentration) 5-HT2A [2]","Percent Inhibition of ligand binding, Serotonin (1 μM ligand concentration) 5-HT7 [3]",inhibition at 1 µM [3]
Cc1ccc2c(c1)c1c(n2CCc2ccncc2)CN2CCC1C2 (stereo not drawn) [Compound 30],18%,71%,–,–,–,95%
Cc1ccc2c(c1)c1c(n2CC(=O)c2ccc(Cl)cc2)CN2CCC1C2 (stereo not drawn) [Compound 29],19%,56%,–,–,–,81%
Cc1ccc(C(O)Cn2c3c(c4cc(C)ccc42)C2CCN(C3)C2)cc1 (stereo not drawn) [Compound 5],4%,81%,–,–,–,–
Cc1ccc2c(c1)c1c(n2CC(=O)N2CCNCC2)CN2CCC1C2 (stereo not drawn) [Compound 24],-3%,3%,–,–,–,–
Cc1ccc2c(c1)c1c(n2CC(O)c2ccc(F)cc2)CN2CCC1C2 (stereo not drawn) [Compound 31],5%,58%,–,–,–,73%
COc1ccc(C(O)Cn2c3c(c4cc(C)ccc42)C2CCN(C3)C2)cc1OC (stereo not drawn) [Compound 8],2%,25%,–,–,–,–
Cc1ccc2c(c1)c1c(n2CCc2ccc(C)nc2)CN2CCC1C2 (stereo not drawn) [Compound 12],4%,17%,–,–,–,–
C=C(Cn1c2c(c3cc(C)ccc31)C1CCN(C2)C1)c1ccc(F)cc1 (stereo not drawn) [Compound 3],25%,94%,–,–,–,–
C/C(=C\n1c2c(c3cc(C)ccc31)C1CCN(C2)C1)c1cccnc1 (stereo not drawn) [Compound 42],1%,47%,–,–,–,92%
Cc1ccc(C(C)(O)Cn2c3c(c4cc(C)ccc42)C2CCN(C3)C2)cc1 (stereo not drawn) [Compound 20],2%,102%,–,–,–,–
C/C(=C\n1c2c(c3cc(C)ccc31)C1CCN(C2)C1)c1ccc(F)c(F)c1 (stereo not drawn) [Compound 39],20%,94%,–,–,–,96%
Cc1ccc2c(c1)c1c(n2CC(C)(O)c2ccc(F)cc2F)CN2CCC1C2 (stereo not drawn) [Compound 17],4%,81%,–,–,–,–
C/C(=C\n1c2c(c3cc(C)ccc31)C1CCN(C2)C1)c1ccc(Cl)c(Cl)c1 (stereo not drawn) [Compound 40],39%,94%,–,–,–,95%
Cc1ccc2c(c1)c1c(n2CCc2ccc(C(F)(F)F)nc2)CN2CCC1C2 (stereo not drawn) [Compound 1],0%,18%,–,–,–,–
Cc1ccc2c(c1)c1c(n2CC(=O)N2CCC(C)CC2)CN2CCC1C2 (stereo not drawn) [Compound 25],-4%,2%,–,–,–,–
Cc1ccc2c(c1)c1c(n2CC(=O)c2ccc(F)cc2)CN2CCC1C2 (stereo not drawn) [Compound 28],18%,61%,–,–,–,82%
COc1ccc(/C(C)=C/n2c3c(c4cc(C)ccc42)C2CCN(C3)C2)cc1F (stereo not drawn) [Compound 41],24%,92%,–,–,–,90%
Cc1ccc2c(c1)c1c(n2CC(C)(O)c2ccc(F)c(Cl)c2)CN2CCC1C2 (stereo not drawn) [Compound 18],16%,81%,–,–,–,–
Cc1ccc2c(c1)c1c(n2CC(=O)N(C)C)CN2CCC1C2 (stereo not drawn) [Compound 27],-3%,-4%,–,–,–,–
